Laboratory results reported in patent US11247990B1, “Bicyclic fused pyridine compounds as inhibitors of TAM kinases” (ARRAY BIOPHARMA INC., priority 2017, dated 2022).

Assays:
Conditions in all cases: averaged IC50
[1] = biological target: His-tagged recombinant human MER cytoplasmic domain (Homo sapiens (Human), UniProt Q12866); assay: MER Enzyme Assay (LanthaScreen Eu Kinase Binding, TR-FRET)
How it was run: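 LanthaScreen Eu kinase binding (tracer displacement) assay with His-tagged human MER cytoplasmic domain, 60 min incubation at 22 °C. TR-FRET dual-wavelength emission ratio converted to percent of control; IC50 is where the 4-parameter logistic fit crosses 50 POC.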

[2] = biological target: His-tagged recombinant human AXL cytoplasmic domain (Homo sapiens (Human), UniProt P30530); assay: AXL Enzyme Assay (LanthaScreen Eu Kinase Binding, TR-FRET)
His-tagged recombinant human AXL cytoplasmic domain, sequence (P30530 473-894): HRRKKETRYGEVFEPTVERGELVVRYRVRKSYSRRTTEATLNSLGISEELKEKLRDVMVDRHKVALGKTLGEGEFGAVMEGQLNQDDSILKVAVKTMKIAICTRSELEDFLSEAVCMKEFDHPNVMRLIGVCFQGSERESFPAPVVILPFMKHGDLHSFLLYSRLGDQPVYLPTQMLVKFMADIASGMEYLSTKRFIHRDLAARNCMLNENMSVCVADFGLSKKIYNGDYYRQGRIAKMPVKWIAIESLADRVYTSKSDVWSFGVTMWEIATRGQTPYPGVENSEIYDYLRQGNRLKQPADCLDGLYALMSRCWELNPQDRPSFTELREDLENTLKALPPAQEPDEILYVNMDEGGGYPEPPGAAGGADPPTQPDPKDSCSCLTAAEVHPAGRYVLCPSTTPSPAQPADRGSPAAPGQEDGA
Experimental: Compounds of Formula I were screened for their ability to inhibit AXL kinase using Invitrogen's LanthaScreen™ Eu Kinase Binding technology. […] After a 60-minute incubation at 22° C., the reaction was measured using a PerkinElmer EnVision multimode plate reader via TR-FRET dual wavelength detection, and the percent of control (POC) was calculated using a ratiometric emission factor. […] The POC values are fit to a 4 parameter logistic curve and the IC50 value is point where the curve crosses 50 POC.

[3] = biological target: GST-tagged recombinant human TYRO3 kinase domain (Homo sapiens (Human), UniProt Q06418); assay: TYRO3 Enzyme Assay (LanthaScreen Eu Kinase Binding, TR-FRET)
GST-tagged recombinant human TYRO3 kinase domain, sequence (Q06418 518-790): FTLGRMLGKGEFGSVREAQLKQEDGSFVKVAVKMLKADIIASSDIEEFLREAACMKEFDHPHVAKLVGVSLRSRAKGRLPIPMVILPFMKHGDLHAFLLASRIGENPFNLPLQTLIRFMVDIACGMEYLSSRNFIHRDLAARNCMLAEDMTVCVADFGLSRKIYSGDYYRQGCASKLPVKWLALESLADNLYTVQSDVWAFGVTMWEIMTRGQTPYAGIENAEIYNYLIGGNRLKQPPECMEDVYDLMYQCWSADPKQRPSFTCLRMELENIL
How it was run: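 LanthaScreen Eu binding (tracer displacement) format read by TR-FRET after 60 min at 22 °C. Emission ratio converted to percent of control; IC50 taken where a 4-parameter logistic fit crosses 50 POC.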

His-tagged recombinant human MER cytoplasmic domain, sequence (Q12866 527-999): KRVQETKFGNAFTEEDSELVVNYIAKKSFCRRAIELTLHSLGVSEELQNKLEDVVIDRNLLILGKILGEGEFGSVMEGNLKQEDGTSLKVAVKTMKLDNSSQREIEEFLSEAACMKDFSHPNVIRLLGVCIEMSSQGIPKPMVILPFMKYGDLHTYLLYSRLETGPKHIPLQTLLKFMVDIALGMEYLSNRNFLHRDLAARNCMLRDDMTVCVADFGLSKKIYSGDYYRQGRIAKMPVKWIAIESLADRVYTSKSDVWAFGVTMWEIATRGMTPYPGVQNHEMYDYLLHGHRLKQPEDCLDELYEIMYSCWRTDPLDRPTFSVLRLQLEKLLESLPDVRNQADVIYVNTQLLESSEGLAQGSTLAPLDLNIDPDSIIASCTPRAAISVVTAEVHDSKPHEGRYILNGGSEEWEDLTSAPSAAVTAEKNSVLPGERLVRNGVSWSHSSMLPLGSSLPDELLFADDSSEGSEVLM

Question: How did the IC50 [1] turn out when CCNc1cc2c(cn1)c(-c1ccc3c(c1)CN(C)S3(=O)=O)nn2[C@H]1CC[C@@H](Oc2cn(C)nc2C(F)(F)F)CC1 [Example 222, 5-(6-(ethylamino)-1-((1s,4s)-4-((1-methyl-3-(trifluoromethyl)-1H-pyrazol-4-yl)oxy)cyclohexyl)-1H-pyrazolo[4,3-c]pyridin-3-yl)-2-methyl-2,3-dihydrobenzo[d]isothiazole 1,1-dioxide] was run?
Answer: < 10 nM

Question: What about the IC50 [2] of the same molecule?
Answer: < 10 nM

Question: And the IC50 [3]?
Answer: < 10 nM

Question: For CNc1cc2c(cn1)c(-c1cnn(C(C)(C)CO)c1)nn2[C@H]1CC[C@@H](Oc2ccccc2F)CC1 [Example 395, 2-(4-(1-((1s,4s)-4-(2-fluorophenoxy)cyclohexyl)-6-(methylamino)-1H-pyrazolo[4,3-c]pyridin-3-yl)-1H-pyrazol-1-yl)-2-methylpropan-1-ol], which IC50 [1] is on record?
Answer: < 10 nM

Question: And the IC50 [2]?
Answer: < 10 nM

Question: What about the IC50 [3] of the same molecule?
Answer: 10 to 100 nM

Question: Which IC50 [1] does the source give for CNc1cc2c(cn1)c(-c1cnn(C(C)(C)C#N)c1)nn2[C@H]1CC[C@@H](Oc2cccc(F)c2F)CC1 [Example 369, 2-(4-(1-((1s,4s)-4-(2,3-difluorophenoxy)cyclohexyl)-6-(methylamino)-1H-pyrazolo[4,3-c]pyridin-3-yl)-1H-pyrazol-1-yl)-2-methylpropanenitrile] here?
Answer: < 10 nM

Question: What about the IC50 [2] of the same molecule?
Answer: < 10 nM

Question: And the IC50 [3]?
Answer: 10 to 100 nM

Question: Which IC50 [1] does the source give for CCNc1cc2c(cn1)c(C1CCNC1)nn2[C@H]1CC[C@@H](Oc2nccc(C(F)(F)F)c2F)CC1 (stereo partly drawn) [Example 320, N-ethyl-1-((1s,4s)-4-((3-fluoro-4-(trifluoromethyl)pyridin-2-yl)oxy)cyclohexyl)-3-(pyrrolidin-3-yl)-1H-pyrazolo[4,3-c]pyridin-6-amine] here?
Answer: < 10 nM

Question: What about the IC50 [2] of the same molecule?
Answer: < 10 nM

Question: And the IC50 [3]?
Answer: 10 to 100 nM

Question: What does the source list for CCNc1cc2c(cn1)c(-c1cnn(C)c1)nn2[C@H]1CC[C@@H](Oc2cccn(C)c2=O)CC1 [Example 109, 3-(((1s,4s)-4-(6-(ethylamino)-3-(1-methyl-1H-pyrazol-4-yl)-1H-pyrazolo[4,3-c]pyridin-1-yl)cyclohexyl)oxy)-1-methylpyridin-2(1H)-one]?
Answer: IC50 [2]: 1000 to 10000 nM; IC50 [3]: 1000 to 10000 nM

Question: Which results are given for CNc1cc2c(cn1)c(-c1cnn(C)c1)nn2[C@H]1CC[C@@H](Oc2ncccc2C(F)(F)F)CC1 [Example 125, N-methyl-3-(1-methyl-1H-pyrazol-4-yl)-1-((1s,4s)-4-((3-(trifluoromethyl)pyridin-2-yl)oxy)cyclohexyl)-1H-pyrazolo[4,3-c]pyridin-6-amine]?
Answer: IC50 [1]: < 10 nM; IC50 [2]: < 10 nM

Question: For CNc1cc2c(cn1)c(-c1ccc(CN3CCN(C)CC3)cc1)nn2[C@H]1CC[C@@H](Oc2ccc(=O)n(C)n2)CC1 [Example 27, 2-methyl-6-(((1s,4s)-4-(6-(methylamino)-3-(4-((4-methylpiperazin-1-yl)methyl)phenyl)-1H-pyrazolo[4,3-c]pyridin-1-yl)cyclohexyl)oxy)pyridazin-3(2H)-one], which IC50 [1] is on record?
Answer: < 10 nM

Question: And the IC50 [2]?
Answer: < 10 nM

Question: Which results are given for CNc1cc2c(cn1)c(-c1cnn(C)c1)nn2[C@H]1CC[C@@H](Oc2ccccc2)CC1 [Example 371, N-methyl-3-(1-methyl-1H-pyrazol-4-yl)-1-((1s,4s)-4-phenoxycyclohexyl)-1H-pyrazolo[4,3-c]pyridin-6-amine]?
Answer: IC50 [1]: < 10 nM; IC50 [2]: < 10 nM

Question: For CNc1cc2c(cn1)c(-c1cnn(C)c1)nn2[C@H]1CC[C@@H](Oc2ccccc2F)CC1 [Example 353, 1-((1s,4s)-4-(2-fluorophenoxy)cyclohexyl)-N-methyl-3-(1-methyl-1H-pyrazol-4-yl)-1H-pyrazolo[4,3-c]pyridin-6-amine], which IC50 [1] is on record?
Answer: < 10 nM

Question: What about the IC50 [2] of the same molecule?
Answer: < 10 nM

Question: What does the source list for CCNc1cc2c(cn1)c(C1CCOCC1)nn2[C@H]1CC[C@@H](Oc2nccc(C(F)(F)F)c2F)CC1 [Example 317, N-ethyl-1-((1s,4s)-4-((3-fluoro-4-(trifluoromethyl)pyridin-2-yl)oxy)cyclohexyl)-3-(tetrahydro-2H-pyran-4-yl)-1H-pyrazolo[4,3-c]pyridin-6-amine]?
Answer: IC50 [1]: < 10 nM; IC50 [2]: < 10 nM

Question: With CNc1cc2c(cn1)c(-c1cnn(C)c1)nn2[C@H]1CC[C@@H](Oc2ccccc2C#N)CC1 [Example 363, 2-(((1s,4s)-4-(3-(1-methyl-1H-pyrazol-4-yl)-6-(methylamino)-1H-pyrazolo[4,3-c]pyridin-1-yl)cyclohexyl)oxy)benzonitrile] as the molecule, how does the IC50 [1] read?
Answer: < 10 nM

Question: What about the IC50 [2] of the same molecule?
Answer: < 10 nM

Question: CNc1cc2c(cn1)c(-c1cnn(CCN3CCOCC3)c1)nn2[C@H]1CC[C@@H](Oc2ccccc2F)CC1 [Example 397, 1-((1s,4s)-4-(2-fIuorophenoxy)cyclohexyl)-N-methyl-3-(1-(2-morpholinoethyl)-1H-pyrazol-4-yl)-1H-pyrazolo[4,3-c]pyridin-6-amine] was tested. Which IC50 [1] did it give?
Answer: < 10 nM

Question: And the IC50 [2]?
Answer: < 10 nM

Question: Which IC50 [1] does the source give for CNc1cc2c(cn1)c(-c1cnn(C)c1)nn2[C@H]1CC[C@@H](Oc2cccnc2C)CC1 [Example 135, N-methyl-3-(1-methyl-1H-pyrazol-4-yl)-1-((1s,4s)-4-((2-methylpyridin-3-yl)oxy)cyclohexyl)-1H-pyrazolo[4,3-c]pyridin-6-amine] here?
Answer: < 10 nM

Question: And the IC50 [2]?
Answer: < 10 nM

Question: CNc1cc2c(cn1)c(-c1ccc3c(c1)CNC3=O)nn2[C@H]1CC[C@@H](Oc2cnn(C)c2C(F)(F)F)CC1 [Example 266, 5-(1-((1s,4s)-4-((1-methyl-5-(trifluoromethyl)-1H-pyrazol-4-yl)oxy)cyclohexyl)-6-(methylamino)-1H-pyrazolo[4,3-c]pyridin-3-yl)isoindolin-1-one] was tested. Which IC50 [1] did it give?
Answer: < 10 nM

Question: And the IC50 [2]?
Answer: < 10 nM

Question: Which results are given for CNc1cc2c(cn1)c(-c1cnn(C)c1)nn2[C@H]1CC[C@@H](Oc2ncccc2F)CC1 [Example 122, 1-((1s,4s)-4-((3-fluoropyridin-2-yl)oxy)cyclohexyl)-N-methyl-3-(1-methyl-1H-pyrazol-4-yl)-1H-pyrazolo[4,3-c]pyridin-6-amine]?
Answer: IC50 [1]: < 10 nM; IC50 [2]: < 10 nM

Question: CCNc1cc2c(cn1)c(-c1ccc3c(c1)CN(C)S3(=O)=O)nn2[C@H]1CC[C@@H](Oc2cnn(C)c2C(F)(F)F)CC1 [Example 224, 5-(6-(ethylamino)-1-((1s,4s)-4-((1-methyl-5-(trifluoromethyl)-1H-pyrazol-4-yl)oxy)cyclohexyl)-1H-pyrazolo[4,3-c]pyridin-3-yl)-2-methyl-2,3-dihydrobenzo[d]isothiazole 1,1-dioxide] was tested. Which IC50 [2] did it give?
Answer: 1000 to 10000 nM

Question: What about the IC50 [3] of the same molecule?
Answer: 1000 to 10000 nM

Question: What does the source list for CCNc1cc2c(cn1)c(-c1cnc(C)nc1)nn2[C@H]1CC[C@@H](Oc2nccc(C(F)(F)F)c2F)CC1 [Example 268, N-ethyl-1-((1s,4s)-4-((3-fluoro-4-(trifluoromethyl)pyridin-2-yl)oxy)cyclohexyl)-3-(2-methylpyrimidin-5-yl)-1H-pyrazolo[4,3-c]pyridin-6-amine]?
Answer: IC50 [1]: < 10 nM; IC50 [2]: < 10 nM

Question: What does the source list for CCNc1cc2c(cn1)c(-c1ccn(CCN3CCOCC3)n1)nn2[C@H]1CC[C@@H](Oc2ccc(=O)n(C)n2)CC1 [Example 101, 6-(((1s,4s)-4-(6-(ethylamino)-3-(1-(2-morpholinoethyl)-1H-pyrazol-3-yl)-1H-pyrazolo[4,3-c]pyridin-1-yl)cyclohexyl)oxy)-2-methylpyridazin-3(2H)-one]?
Answer: IC50 [2]: 1000 to 10000 nM; IC50 [3]: 1000 to 10000 nM

Question: How did the IC50 [1] turn out when CNc1cc2c(cn1)n(-c1cnn(C)c1)nc2[C@H]1CC[C@@H](Oc2ccccc2F)CC1 [Example 479, 3-((1s,4s)-4-(2-fluorophenoxy)cyclohexyl)-N-methyl-1-(1-methyl-1H-pyrazol-4-yl)-1H-pyrazolo[3,4-c]pyridin-5-amine] was run?
Answer: < 10 nM

Question: What about the IC50 [2] of the same molecule?
Answer: < 10 nM

Question: With CNc1cc2c(cn1)c(-c1cnn(C)c1)nn2[C@H]1CC[C@@H](Oc2cc(F)ccc2F)CC1 [Example 362, 1-((1s,4s)-4-(2,5-difluorophenoxy)cyclohexyl)-N-methyl-3-(1-methyl-1H-pyrazol-4-yl)-1H-pyrazolo[4,3-c]pyridin-6-amine] as the molecule, how does the IC50 [1] read?
Answer: < 10 nM

Question: What about the IC50 [2] of the same molecule?
Answer: < 10 nM

Question: Which results are given for CNc1cc2c(cn1)c(-c1cnn(C)c1)nn2[C@H]1CC[C@@H](Oc2cccnc2F)CC1 [Example 146, 1-((1s,4s)-4-((2-fluoropyridin-3-yl)oxy)cyclohexyl)-N-methyl-3-(1-methyl-1H-pyrazol-4-yl)-1H-pyrazolo[4,3-c]pyridin-6-amine]?
Answer: IC50 [1]: < 10 nM; IC50 [2]: < 10 nM

Question: Which results are given for CNc1cc2c(cn1)c(-c1cnn(C(C)(C)C#N)c1)nn2[C@H]1CC[C@@H](Oc2ccccc2F)CC1 [Example 394, 2-(4-(1-((1s,4s)-4-(2-fluorophenoxy)cyclohexyl)-6-(methylamino)-1H-pyrazolo[4,3-c]pyridin-3-yl)-1H-pyrazol-1-yl)-2-methylpropanenitrile]?
Answer: IC50 [1]: < 10 nM; IC50 [2]: < 10 nM

Question: What does the source list for CNc1cc2c(cn1)c(-c1cnn(C)c1)nn2[C@H]1CC[C@@H](Oc2cccc(F)c2)CC1 [Example 354, 1-((1s,4s)-4-(3-fluorophenoxy)cyclohexyl)-N-methyl-3-(1-methyl-1H-pyrazol-4-yl)-1H-pyrazolo[4,3-c]pyridin-6-amine]?
Answer: IC50 [1]: < 10 nM; IC50 [2]: < 10 nM

Question: What does the source list for CNc1cc2c(cn1)c(-c1cnn(C)c1)nn2[C@H]1CC[C@@H](Oc2cc(C(F)(F)F)ccn2)CC1 [Example 170, N-methyl-3-(1-methyl-1H-pyrazol-4-yl)-1-((1s,4s)-4-((4-(trifluoromethyl)pyridin-2-yl)oxy)cyclohexyl)-1H-pyrazolo[4,3-c]pyridin-6-amine]?
Answer: IC50 [1]: < 10 nM; IC50 [2]: < 10 nM

Question: For CNc1cc2c(cn1)c(-c1ccc(CN3CCN(C)CC3)cc1)nn2[C@H]1CC[C@@H](Oc2cnn(C)c2)CC1 [Example 232, N-methyl-1-((1s,4s)-4-((1-methyl-1H-pyrazol-4-yl)oxy)cyclohexyl)-3-(4-((4-methylpiperazin-1-yl)methyl)phenyl)-1H-pyrazolo[4,3-c]pyridin-6-amine], which IC50 [1] is on record?
Answer: < 10 nM

Question: What about the IC50 [2] of the same molecule?
Answer: < 10 nM
